{"source": "paper PMC5986547", "about": "(Heliyon, 2018)", "key": {"hNET [1]": {"biological_target": "T1, hNET (Homo sapiens, UniProt P23975)", "T1 sequence (P23975 whole entry)": "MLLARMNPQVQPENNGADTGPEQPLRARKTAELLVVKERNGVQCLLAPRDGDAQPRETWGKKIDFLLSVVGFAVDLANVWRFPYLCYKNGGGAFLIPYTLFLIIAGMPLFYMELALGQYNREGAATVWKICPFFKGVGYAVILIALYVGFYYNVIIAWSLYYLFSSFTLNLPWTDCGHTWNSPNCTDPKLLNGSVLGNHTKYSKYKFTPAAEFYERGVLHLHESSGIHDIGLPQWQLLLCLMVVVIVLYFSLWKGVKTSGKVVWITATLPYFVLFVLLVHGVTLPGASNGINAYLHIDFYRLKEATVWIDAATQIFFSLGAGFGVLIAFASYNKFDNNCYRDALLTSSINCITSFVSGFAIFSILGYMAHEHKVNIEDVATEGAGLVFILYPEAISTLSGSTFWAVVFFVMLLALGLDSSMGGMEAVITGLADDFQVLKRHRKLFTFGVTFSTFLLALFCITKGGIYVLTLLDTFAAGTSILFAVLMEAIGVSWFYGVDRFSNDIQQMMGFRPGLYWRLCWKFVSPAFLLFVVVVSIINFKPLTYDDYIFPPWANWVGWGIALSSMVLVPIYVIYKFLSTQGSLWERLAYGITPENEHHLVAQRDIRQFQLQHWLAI", "assay_type": "cell-based"}, "hNET [2]": {"biological_target": "T1, hNET", "conditions": "read-out: IC50, reuptake inhibition, hNET-HEK293 cells; mean ± S.E.M.; cell suspensions; cited from earlier work"}, "hNET [3]": {"biological_target": "T1, hNET", "assay": "Reuptake inhibition assay, [3H]NE, plated hNET-HEK293 cells", "assay_type": "cell-based"}, "SK-N-BE(2)C cells": {"test_system": "SK-N-BE(2)C cells", "assay": "Uptake kinetics of [3H]NE by adherent SK-N-BE", "assay_type": "cell-based, human", "conditions": "RT, 24-well plates, 163 μg of protein/well, mean ± S.E.M., N = 3"}, "rNET [4]": {"biological_target": "T2, rNET (Rattus norvegicus, UniProt Q63380)", "T2 sequence (Q63380 1-617)": "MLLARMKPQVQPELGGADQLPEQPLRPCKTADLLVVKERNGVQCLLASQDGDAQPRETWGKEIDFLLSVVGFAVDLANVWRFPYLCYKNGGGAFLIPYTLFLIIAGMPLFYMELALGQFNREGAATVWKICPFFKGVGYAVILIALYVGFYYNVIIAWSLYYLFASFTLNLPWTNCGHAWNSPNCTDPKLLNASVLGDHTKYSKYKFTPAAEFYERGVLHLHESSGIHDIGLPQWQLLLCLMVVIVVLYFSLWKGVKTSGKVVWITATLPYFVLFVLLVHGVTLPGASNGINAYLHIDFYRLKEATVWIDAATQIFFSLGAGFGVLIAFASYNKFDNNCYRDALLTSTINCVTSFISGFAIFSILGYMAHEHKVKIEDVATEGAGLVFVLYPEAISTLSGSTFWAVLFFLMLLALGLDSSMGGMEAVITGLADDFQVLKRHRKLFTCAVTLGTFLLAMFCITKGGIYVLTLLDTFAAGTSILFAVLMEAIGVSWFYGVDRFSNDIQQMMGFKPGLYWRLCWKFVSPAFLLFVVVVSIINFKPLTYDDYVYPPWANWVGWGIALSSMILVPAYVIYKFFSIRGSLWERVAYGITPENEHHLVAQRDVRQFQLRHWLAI", "assay_type": "biochemical", "conditions": "read-out: IC50, rNET, synaptosomes (in parentheses, converted from Ki)"}, "rNET [5]": {"biological_target": "T2, rNET", "conditions": "read-out: Ki, reuptake inhibition, rNET, synaptosomes; cited from earlier work"}}, "note": "Like-named read-outs stand apart in the source and are kept apart here."}
{"smiles": "COC(=O)[C@H]1C(c2ccc(I)cc2)C[C@@H]2CC[C@H]1N2C", "note": "(stereo partly shown) [RTI-55]", "values": [{"measurement": "fold less potent in SK-N-BE(2)C cells than in rat brain synaptosomes", "setting": "hNET [1]; ratio of IC50 values", "result": 6, "unit": "fold"}, {"measurement": "fold less potent in SK-N-BE(2)C cells than in hNET-HEK293 cells", "setting": "hNET [1]; ratio of IC50 values, hNET-HEK293 data of ref 8", "result": 14.4, "unit": "fold"}, {"measurement": "IC50", "setting": "hNET [2]", "result": "0.00263 ± 0.00076", "unit": "µM"}]}
{"smiles": "Fc1ccc(C(OCCN2CCN(CCCc3ccccc3)CC2)c2ccc(F)cc2)cc1", "note": "[GBR12909]", "values": [{"measurement": "activity in hNET-HEK293 cells, in words", "setting": "hNET [3]", "result": "inactive"}]}
{"smiles": "NC[C@H](O)c1ccc(O)c(O)c1", "note": "[[^3H]NE, [^3H]norepinephrine]", "values": [{"measurement": "Km", "setting": "SK-N-BE(2)C cells; read-out: KM of [3H]NE uptake", "result": 0.416, "unit": "µM"}]}
{"smiles": "c1ccc(CCCN2CCN(CCOC(c3ccccc3)c3ccccc3)CC2)cc1", "note": "[GBR12935]", "values": [{"measurement": "fold less potent in SK-N-BE(2)C cells than in hNET-HEK293 cells", "setting": "hNET [1]", "result": 14.8, "unit": "fold"}, {"measurement": "fold less potent in SK-N-BE(2)C cells than in rat brain synaptosomes", "setting": "hNET [1]", "result": 11.6, "unit": "fold"}, {"measurement": "IC50", "setting": "hNET [1]; read-out: IC50, reuptake inhibition, hNET, SK-N-BE(2)C cells", "result": "3.47 ± 0.15", "unit": "µM"}, {"measurement": "IC50", "setting": "rNET [4]", "result": 0.299, "unit": "µM"}, {"measurement": "Ki", "setting": "rNET [5]", "result": 0.277, "unit": "µM"}, {"measurement": "IC50", "setting": "hNET [2]", "result": "0.235 ± 0.053", "unit": "µM"}]}
{"smiles": "CN1[C@H]2CC[C@@H]1[C@@H](C(=O)N1CCCC1)[C@@H](c1ccc(I)cc1)C2", "note": "[RTI-229]", "values": [{"measurement": "fold less potent in SK-N-BE(2)C cells than in rat brain synaptosomes", "setting": "hNET [1]; ratio of IC50 values", "result": 38, "unit": "fold"}]}
{"smiles": "[3H][C@](O)(CN)c1ccc(O)c(O)c1", "note": "[[^3H]NE, [^3H]norepinephrine]", "values": [{"measurement": "VMAX of [3H]NE uptake", "setting": "SK-N-BE(2)C cells", "result": "195 ± 13 fmol radioactivity/mg protein/min"}]}
